Test system: influx of neutrophils to the lung in LPS-challenged rats
Test: Rat LPS neutrophilia model
Assay type: in vivo
Details: intratracheal, LPS aerosol 100 ug/ml 15 min, lavage 4 hours later, in at least one of the range of conditions tested, significant p<0.05, nonsignificant p>0.05
Method: The effect of compounds on the influx of neutrophils to the lung in LPS-challenged rats is evaluated as follows. The test compound is suspended in one of the following solutions: 0.5% tween 80/PBS, 0.5% tween 80/saline, 10% EtOH/saline (with pH adjusted to 2.0, or 8.0 with HCl, or unadjusted), Saline @ pH 2.0, 6.5 or 8.0, 0.5% Tragacanth, 1% DMSO/20% Encapsin/Saline, or acidified 5% Tragacanth. The suspension process may be aided by the use of a glass homogenizer. For intratracheal administration, the animals are anesthetized with inhaled isoflurane and placed in a supine position, the trachea is intubated with a steel gavage needle (1.5 inch, 22 gauge, small ball) or a Penn-Century Microsprayer Aerosolizer (model IA-IB) and 200 ul of dosing solution is delivered. The animals are visually monitored during the recovery process, which typically occurs within two minutes. It is noted that the test compounds may be alternatively administered via the microsprayer in a dry powder blend with a suitable excipient, such as lactose.
Rats treated with compound or vehicle (15 min-24 hours pretreatment) are exposed to an LPS aerosol (100 ug/ml) for 15 min. Four hours later the rats are euthanized with pentobarbital (100 mg/kg, i.p.) and the airways are lavaged with 5 washes of 5 ml of phosphate buffered saline. The harvested cells are stained (Diffquick) and counted to determine total and differential cell data. […] Inhibition of neutrophil levels relative to no compound controls is calculated based on the differential counts.
The data is obtained as % inhibition using a particular concentration and pretreat time.

SMILES | inhibition of neutrophilia (neutrophil levels in lung lavage relative to no compound controls)
Cc1ccc(C(=O)NCc2ccccc2)cc1-c1nc(NCc2ncc[nH]2)nc2c1ccc(=O)n2-c1c(F)cccc1F [Example 77, 3-{8-(2,6-difluorophenyl)-2-[(1H-imidazol-2-ylmethyl)amino]-7-oxo-7,8-dihydropyrido[2,3-d]pyrimidin-4-yl}-4-methyl-N-(phenylmethyl)benzamide] | statistically significant inhibition
CCN(CC)CCCNc1nc(-c2cc(C(=O)Nc3ccc(F)cc3)ccc2C)c2ccc(=O)n(-c3c(F)cccc3F)c2n1 [Example 160, 3-[2-{[3-(diethylamino)propyl]amino}-8-(2,6-difluorophenyl)-7-oxo-7,8-dihydropyrido[2,3-d]pyrimidin-4-yl]-N-(4-fluorophenyl)-4-methylbenzamide] | statistically significant inhibition
CCN(CC)CCCNc1nc(-c2cc(C(=O)NCCOC)ccc2C)c2ccc(=O)n(-c3c(F)cccc3F)c2n1 [Example 134, 3-[2-{[3-(diethylamino)propyl]amino-}8(2,6-difluorophenyl)-7-oxo-7,8-dihydropyrido[2,3-d]pyrimidin-4-yl]-4-methyl-N-[2-(methyloxy)ethyl]benzamidetrifluoroacetate] | statistically nonsignificant inhibition
CCN(CC)CCCNc1nc(-c2cc(C(=O)NCC3CCCC3)ccc2C)c2ccc(=O)n(-c3c(F)cccc3F)c2n1 [Example 132, N-(cyclopentylmethyl)-3-[2-{[3-(diethylamino)propyl]amino}-8-(2,6-difluorophenyl)-7-oxo-7,8-dihydropyrido[2,3-d]pyrimidin-4-yl]-4-methylbenzamidetrifluoroacetate] | statistically nonsignificant inhibition
CCCCNC(=O)c1ccc(C)c(-c2nc(N3CCC(N4CCC(C)CC4)CC3)nc3c2ccc(=O)n3-c2c(F)cccc2F)c1 [Example 167, N-butyl-3-[8-(2,6-difluorophenyl)-2-(4-methyl-1,4′-bipiperidin-1′-yl)-7-oxo-7,8-dihydropyrido[2,3-d]pyrimidin-4-yl]-4-methylbenzamide] | statistically significant inhibition
Cc1ccc(C(=O)Nc2nccs2)cc1-c1nc(NCCNC(C)C)nc2c1ccc(=O)n2-c1c(F)cccc1F [Example 103, 3-[8-(2,6-difluorophenyl)-2-({2-[(1-methylethyl)amino]ethyl}amino)-7-oxo-7,8-dihydropyrido[2,3-d]pyrimidin-4-yl]-4-methyl-N-1,3-thiazol-2-ylbenzamide] | statistically significant inhibition
Cc1ccc(C(=O)Nc2ccc(F)cc2)cc1-c1nc(N2CCC(N3CCC(C)CC3)CC2)nc2c1ccc(=O)n2-c1c(F)cccc1F [Example 174, 3-[8-(2,6-difluorophenyl)-2-(4-methyl-1,4′-bipiperidin-1′-yl)-7-oxo-7,8-dihydropyrido[2,3-d]pyrimidin-4-yl]N-(4-fluorophenyl)-4-methylbenzamide] | inactive
CNCCNc1nc(-c2cc(C(=O)Nc3nccs3)ccc2C)c2ccc(=O)n(-c3c(F)cccc3F)c2n1 [Example 61, 3-(8-(2,6-difluorophenyl)-2-{[2-(methylamino)ethyl]amino}-7-oxo-7,8-dihydropyrido[2,3-d]pyrimidin-4-yl)-4-methyl-N-1,3-thiazol-2-ylbenzamide] | statistically significant inhibition
Cc1ccc(C(=O)NC2CCC2)cc1-c1nc(N2CCC(N3CCC(C)CC3)CC2)nc2c1ccc(=O)n2-c1c(F)cccc1F [Example 175, N-cyclobutyl-3-[8-(2,6-difluorophenyl)-2-(4-methyl-1,4′-bipiperidin-1′-yl)-7-oxo-7,8-dihydropyrido[2,3-d]pyrimidin-4-yl]-4-methylbenzamide] | inactive
